The values that follow come from patent US20260240765A1, “RIFAMYCIN-QUINOLIZINONE COUPLED MOLECULE OINTMENT AND METHOD FOR PREPARING SAME” (Tennor Therapeutics (Zhongshan) Limited, priority 2022, published 2026).

The nature of series [1]: Saturation solubility of API in ointment bases. The series is classed as physicochemical. As to the method: Experimental steps: About 340 mg of API was added gradually and slowly to about 5 g of PEG400 (in a water bath at 40° C.), and the mixture was dissolved by magnetic stirring. The orange-red mixture was gradually viscous and could no longer be stirred. About 7 g of PEG400 was added gradually and stirred for another 20 min. The resulting mixture was divided into two portions, one portion was maintained in a water bath at 40° C., and the other portion was cooled to room temperature. Both portions were filtered through a PES water membrane (13 mm, 0.45 μm), and the filtrates were collected for content analysis.
About 400 mg of API was added gradually and slowly to about 5 g of propylene glycol (in a water bath at 40° C.), and the mixture was stirred for dissolution. The orange-red mixture was gradually viscous and could no longer be stirred. About 7 g of PEG400 was added gradually and stirred for another 20 min. The resulting mixture was divided into two portions, one portion was maintained in a water bath at 40° C., and the other portion was cooled to room temperature. Both portions were filtered through a PES water membrane (13 mm, 0.45 μm), and the filtrates were collected for content analysis.

For series [2] the following is noted: cited from earlier work.

For the molecule `CO[C@H]1/C=C/O[C@@]2(C)Oc3c(C)c(O)c4c(O)c(c(/C=N/N5CCC(N(C)C6([C@@H]7CCN(c8c(F)cn9c(=O)c(C(=O)O)cc(C%10CC%10)c9c8C)C7)CC6)CC5)c(O)c4c3C2=O)NC(=O)/C(C)=C\C=C\[C@H](C)[C@H](O)[C@@H](C)[C@@H](O)[C@@H](C)[C@H](OC(C)=O)[C@@H]1C` [API, rifamycin-quinolizinone coupling molecule], the Saturation solubility in series [1] (in PEG400, 40° C.) came to 23.79 mg/g; in series [1] (in PEG400, room temperature), 5.80 mg/g; in series [1] (in propylene glycol, 40° C.) it was 0.65 mg/g; in series [1] (in propylene glycol, room temperature), 0.15 mg/g. Besides, in series [2], the “Solubility in dichloromethane, polyethylene glycol 400, and dimethyl sulfoxide” value is given as “soluble”. The “Solubility in ethanol, methanol, and diethyl ether” value in series [2] is given as “almost insoluble”. In addition, the Water solubility entry in series [2] is “low”. Moreover, the “Oxidation on exposure to air” value in series [2] (phenol form converts to quinone form) was “easily to be oxidized”. The “pH of maximum water solubility” value in series [2] (water solubility is pH-dependent, relatively low at low pH) is reported as 10.
